Data: patent US20060223708A1, “Substituted N-[pyrimidin-2-ylmethyl]carboxamides and their use as herbicides and plant growth regulators” (Bayer CropScience GmbH, priority 2005, published 2006)

Columns and labels:
Lolium multiflorum [1] = test: Pre-emergence effect on weeds; format: in vivo; conditions: dosage 1000 g of a.i./ha, scored visually after 3 to 4 weeks
Source text: (§1) 1. Pre-Emergence Effect on Weeds
(§2) Seeds of monocotyledonous and dicotyledonous weed plants are placed into sandy loam soil in cardboard pots and covered with soil. The compounds of the invention, formulated as wettable powders or emulsion concentrates, are then applied to the surface of the soil cover in the form of aqueous suspensions or emulsions at an application rate of 600 to 800 l of water/ha (converted), in various dosages. After the treatment, the pots are placed in a greenhouse and kept under good growth conditions for the weeds. After the test plants have emerged, the damage to the plants or the negative effect on the emergence was scored visually after a test period of 3 to 4 weeks by comparison with untreated controls. Here, the compounds according to the invention have excellent activity against a broad spectrum of economically important monocotyledonous and dicotyledonous harmful plants, see Tables A to G.

Amaranthus retroflexus [2] = test: Pre-emergence effect on weeds; format: in vivo; conditions: dosage 1000 g of a.i./ha, scored visually after 3 to 4 weeks
Source text: as §1, §2

Stellaria media = test: Pre-emergence effect on weeds; format: in vivo; conditions: dosage 1000 g of a.i./ha, scored visually after 3 to 4 weeks
Source text: as §1, §2

Setaria viridis [3] = test: Pre-emergence effect on weeds; format: in vivo; conditions: dosage 1000 g of a.i./ha, scored visually after 3 to 4 weeks
Source text: as §1, §2

Echinochloa crus galli = test: Herbicidal post-emergence effect on harmful plants; format: in vivo; conditions: dosage 1000 g of a.i./ha, rated after 3 to 4 weeks
Protocol: (§3) 2. Herbicidal Post-Emergence Effect on Harmful Plants
(§4) Seeds of monocotyledonous and dicotyledonous harmful plants are placed in sandy loam soil in cardboard pots, covered with soil and cultivated in a greenhouse under good growth conditions. Two to three weeks after sowing, the test plants are treated at the three-leaf stage. The compounds according to the invention, formulated in the form of wettable powders or emulsion concentrates, are sprayed onto the surface of the green parts of the plants at an application rate of 600 to 800 l of water/ha (converted), in various dosages. After the test plants have remained in the greenhouse under optimum growth conditions for 3 to 4 weeks, the effect of the compounds is rated. Here, the compounds according to the invention have excellent activity against a broad spectrum of economically important monocotyledonous and dicotyledonous harmful plants, see Tables H to J.

Amaranthus retroflexus [4] = test: Herbicidal post-emergence effect on harmful plants; format: in vivo; conditions: dosage 1000 g of a.i./ha, rated after 3 to 4 weeks
Protocol: as §3, §4

Setaria viridis [5] = test: Herbicidal post-emergence effect on harmful plants; format: in vivo; conditions: dosage 1000 g of a.i./ha, rated after 3 to 4 weeks
Protocol: as §3, §4

Cyperus iria = test: Herbicidal post-emergence effect on harmful plants; format: in vivo; conditions: dosage 1000 g of a.i./ha, rated after 3 to 4 weeks
Protocol: as §3, §4

[6] = Pre-emergence effect on weeds; format: in vivo, Sinapis arvensis; conditions: dosage 1000 g of a.i./ha, scored visually after 3 to 4 weeks
Source text: as §1, §2

[7] = Pre-emergence effect on weeds; format: in vivo, Avena fatua; conditions: dosage 1000 g of a.i./ha, scored visually after 3 to 4 weeks
Source text: as §1, §2

Lolium multiflorum [8] = test: Herbicidal post-emergence effect on harmful plants; format: in vivo; conditions: dosage 1000 g of a.i./ha, rated after 3 to 4 weeks
Protocol: as §3, §4

Compound	Herbicidal effect LOLMU (Lolium multiflorum [1]) [%]	Herbicidal effect AMARE (Amaranthus retroflexus [2]) [%]	Herbicidal effect STEME (Stellaria media) [%]	Herbicidal effect SETVI (Setaria viridis [3]) [%]	Herbicidal effect ECHCG (Echinochloa crus galli) [%]	Herbicidal effect AMARE (Amaranthus retroflexus [4]) [%]	Herbicidal effect SETVI (Setaria viridis [5]) [%]	Herbicidal effect CYPIR (Cyperus iria) [%]	Herbicidal effect SINAL [6] [%]	Herbicidal effect AVESA [7] [%]	Herbicidal effect LOLMU (Lolium multiflorum [8]) [%]
Cc1cc(Oc2cccc(C(F)(F)F)c2)nc(CNC(=O)C2CC2)n1 [Compound 1-206, N-[(4-methyl-6-{(3-trifluoromethyl)phenoxy}pyrimidin-2-yl)methyl]cyclopropanecarboxamide]	100	100	100	100							
Cc1cc(Oc2cccc(C(F)(F)F)c2)nc(CNC(=O)C2CCC2)n1 [Compound 1-505]	100	100	100	100							
Cc1cc(Oc2csc(C(F)(F)F)c2)nc(CNC(=O)C2CC2)n1 [Compound 2-205]		100	100	100	90	90	90	90	90		
CCc1cc(Oc2csc(C(F)(F)F)c2)nc(CNC(=O)C2CC2)n1 [Compound 2-304]		100	100	100					100		
CCc1cc(Oc2ccnc(C(F)(F)F)c2)nc(CNC(=O)C2CC2)n1 [Compound 3-306, N-[(4-ethyl-6-{[2-(trifluoromethyl)pyridin-4-yl]oxy}pyrimidin-2-yl)methyl]cyclopropanecarboxamide]		100		100	90	90		100	100	100	90
Cc1cc(Oc2cc(C(F)(F)F)nn2C)nc(CNC(=O)C2CC2)n1 [Compound 5-206]	100		100	100	100	90		100	100		90
CCc1cc(Oc2cc(C(F)(F)F)nn2C)nc(CNC(=O)C(F)(F)F)n1 [Compound 5-319]	100		100	100					100		
